Experimental data from the supplement of paper PMC10307832.

Assays:
Test in all cases: relative viability (nuclei count vs DMSO), 5 days (fraction); higher = more cells survive
[1] = system: 201T
How it was run: (§1)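 Lung cancer cell lines were seeded in 1536-well plates and dosed by pin tool the next day, with either a single drug or a fixed anchor-drug dose combined with five library-drug doses (not always all listed) spaced in √10 steps. Five days later, one step fixed the cells and stained their nuclei (final 0.05% Triton X-100, 1% formaldehyde, 1 ug/ml Hoechst), and nuclei were counted on 4× images. Relative viability is the nuclei count in treated wells divided by the count in vehicle wells, and each value is the median of duplicate plates.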

[2] = system: ABC-1
How it was run: as §1

[3] = system: BEN
How it was run: as §1

[4] = system: H3255
How it was run: as §1

[5] = system: HARA
How it was run: as §1

[6] = system: HCC-15
How it was run: as §1

[7] = system: HCC-827
How it was run: as §1

[8] = system: LC-2-ad
How it was run: as §1

[9] = system: LCLC-103H
How it was run: as §1

[10] = system: LOU-NH91
How it was run: as §1

[11] = system: LU99A
How it was run: as §1

[12] = system: NCI-H1355
How it was run: as §1

[13] = system: NCI-H1666
How it was run: as §1

[14] = system: NCI-H1755
How it was run: as §1

[15] = system: NCI-H1993
How it was run: as §1

[16] = system: NCI-H2085
How it was run: as §1

[17] = system: NCI-H2170
How it was run: as §1

[18] = system: NCI-H2342
How it was run: as §1

[19] = system: NCI-H23
How it was run: as §1

[20] = system: NCI-H727
How it was run: as §1

[21] = system: PC-3 [JPC-3]
How it was run: as §1

[22] = system: RERF-LC-KJ
How it was run: as §1

[23] = system: SK-LU-1
How it was run: as §1

`Nc1cccc2c1CN(C1CCC(=O)NC1=O)C2=O` (centres undefined) [Lenalidomide] + Nc1ncn([C@H]2C[C@H](O)[C@@H](CO)O2)c(=O)n1 [Decitabine] (partner 2 µM) gave a relative viability ([1]; first compound 0.253 µM) of 0.874, a relative viability ([1]; first compound 0.8 µM) of 0.927 and a relative viability ([1]; first compound 2.53 µM) of 0.88. For the same compound, the relative viability ([1]; first compound 8 µM) was 0.816, the relative viability ([2]; first compound 0.253 µM) was 0.929 and the relative viability ([2]; first compound 0.8 µM) was 1.05. For the same compound, the relative viability ([2]; first compound 2.53 µM) was 0.827, the relative viability ([2]; first compound 8 µM) was 0.939 and the relative viability ([3]; first compound 0.253 µM) was 0.728. For the same compound, the relative viability ([3]; first compound 0.8 µM) was 0.635, the relative viability ([3]; first compound 2.53 µM) was 0.766 and the relative viability ([3]; first compound 8 µM) was 0.62. It also gave a relative viability ([4]; first compound 0.253 µM) of 0.592, a relative viability ([4]; first compound 0.8 µM) of 0.556 and a relative viability ([4]; first compound 2.53 µM) of 0.563. It also gave a relative viability ([4]; first compound 8 µM) of 0.421, a relative viability ([5]; first compound 0.253 µM) of 0.597 and a relative viability ([5]; first compound 2.53 µM) of 0.538. The relative viability ([5]; first compound 8 µM) was 0.561, the relative viability ([6]; first compound 0.253 µM) was 0.766 and the relative viability ([6]; first compound 2.53 µM) was 0.763. The relative viability ([6]; first compound 8 µM) was 0.594, the relative viability ([7]; first compound 0.253 µM) was 0.336 and the relative viability ([7]; first compound 0.8 µM) was 0.284. The relative viability ([7]; first compound 2.53 µM) was 0.348, the relative viability ([7]; first compound 8 µM) was 0.35 and the relative viability ([8]; first compound 0.253 µM) was 0.685. The relative viability ([8]; first compound 0.8 µM) was 0.81, the relative viability ([8]; first compound 2.53 µM) was 0.744 and the relative viability ([8]; first compound 8 µM) was 0.79. For the same compound, the relative viability ([9]; first compound 0.253 µM) was 0.72, the relative viability ([9]; first compound 0.8 µM) was 0.664 and the relative viability ([9]; first compound 2.53 µM) was 0.73. For the same compound, the relative viability ([9]; first compound 8 µM) was 0.651, the relative viability ([10]; first compound 0.253 µM) was 0.815 and the relative viability ([10]; first compound 0.8 µM) was 0.826. For the same compound, the relative viability ([10]; first compound 2.53 µM) was 0.831, the relative viability ([10]; first compound 8 µM) was 0.765 and the relative viability ([11]; first compound 0.253 µM) was 0.894. For the same compound, the relative viability ([11]; first compound 0.8 µM) was 0.823, the relative viability ([11]; first compound 2.53 µM) was 0.868 and the relative viability ([11]; first compound 8 µM) was 0.702. For the same compound, the relative viability ([12]; first compound 0.253 µM) was 0.36, the relative viability ([12]; first compound 0.8 µM) was 0.367 and the relative viability ([12]; first compound 2.53 µM) was 0.376. It also gave a relative viability ([12]; first compound 8 µM) of 0.341, a relative viability ([13]; first compound 0.253 µM) of 0.791 and a relative viability ([13]; first compound 0.8 µM) of 0.528. It also gave a relative viability ([13]; first compound 2.53 µM) of 0.772, a relative viability ([13]; first compound 8 µM) of 0.647 and a relative viability ([14]; first compound 0.253 µM) of 0.763. It also gave a relative viability ([14]; first compound 0.8 µM) of 0.687, a relative viability ([14]; first compound 2.53 µM) of 0.712 and a relative viability ([14]; first compound 8 µM) of 0.688. It also gave a relative viability ([15]; first compound 0.253 µM) of 0.658, a relative viability ([15]; first compound 0.8 µM) of 0.588 and a relative viability ([15]; first compound 2.53 µM) of 0.529. It also gave a relative viability ([15]; first compound 8 µM) of 0.51, a relative viability ([16]; first compound 0.253 µM) of 0.546 and a relative viability ([16]; first compound 0.8 µM) of 0.542. The relative viability ([16]; first compound 2.53 µM) was 0.529, the relative viability ([16]; first compound 8 µM) was 0.566 and the relative viability ([17]; first compound 0.253 µM) was 0.49. The relative viability ([17]; first compound 0.8 µM) was 0.429, the relative viability ([17]; first compound 2.53 µM) was 0.469 and the relative viability ([17]; first compound 8 µM) was 0.471. The relative viability ([18]; first compound 0.253 µM) was 0.687, the relative viability ([18]; first compound 0.8 µM) was 0.678 and the relative viability ([18]; first compound 2.53 µM) was 0.624. It also gave a relative viability ([18]; first compound 8 µM) of 0.699, a relative viability ([19]; first compound 0.253 µM) of 0.302 and a relative viability ([19]; first compound 2.53 µM) of 0.315. For the same compound, the relative viability ([19]; first compound 8 µM) was 0.305, the relative viability ([20]; first compound 0.253 µM) was 0.778 and the relative viability ([20]; first compound 0.8 µM) was 0.637. For the same compound, the relative viability ([20]; first compound 2.53 µM) was 0.99, the relative viability ([20]; first compound 8 µM) was 0.616 and the relative viability ([21]; first compound 0.253 µM) was 0.848. For the same compound, the relative viability ([21]; first compound 0.8 µM) was 0.807, the relative viability ([21]; first compound 2.53 µM) was 0.874 and the relative viability ([21]; first compound 8 µM) was 0.878. The relative viability ([22]; first compound 0.253 µM) was 0.717, the relative viability ([22]; first compound 0.8 µM) was 0.655 and the relative viability ([22]; first compound 2.53 µM) was 0.65. It also gave a relative viability ([22]; first compound 8 µM) of 0.774, a relative viability ([23]; first compound 0.253 µM) of 0.614 and a relative viability ([23]; first compound 0.8 µM) of 0.58. The relative viability ([23]; first compound 2.53 µM) was 0.72 and the relative viability ([23]; first compound 8 µM) was 0.603.
